One assay addresses T1, human B1R (Homo sapiens, UniProt P46663).
T1 construct: expressed in transfected cells; host or cells: CHO K1 cells
T1 sequence (P46663 1-353): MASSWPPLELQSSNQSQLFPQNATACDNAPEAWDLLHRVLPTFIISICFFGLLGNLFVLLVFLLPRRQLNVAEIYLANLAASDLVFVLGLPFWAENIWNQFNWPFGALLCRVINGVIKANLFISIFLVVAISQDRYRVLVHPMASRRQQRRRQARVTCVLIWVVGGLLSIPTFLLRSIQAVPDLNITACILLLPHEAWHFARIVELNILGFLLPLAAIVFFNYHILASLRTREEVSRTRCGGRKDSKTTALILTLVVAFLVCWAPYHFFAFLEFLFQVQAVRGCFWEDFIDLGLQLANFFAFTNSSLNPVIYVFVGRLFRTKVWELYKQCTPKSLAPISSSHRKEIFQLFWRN
As to the kind of experiment: Functional investigation on the bradykinin receptor 1 (B1R), FLIPR Ca2+ assay, hB1R cells. Type of assay: cell-based. The settings on record: % inhibition human B1R at 10 μM; CHO K1 cells transfected with human B1R; agonist Lys-Des-Arg9 bradykinin at EC80; read-out: % Inh. (hum. B1R) 10 μM. How it is done: (§1) The agonistic or antagonistic action of substances can be quantified on the bradykinin receptor 1 (B1R) of the human and rat species with ectopically expressing cell lines (CHO K1 cells) and with the aid of a Ca^2+-sensitive dye (Fluo-4) using a fluorescent imaging plate reader (FLIPR). The indication in % activation is based on the Ca^2+ signal after addition of Lys-Des-Arg^9 bradykinin (0.5 nM) or Des-Arg^9 bradykinin (100 nM). Antagonists lead to a suppression of the Ca^2+ influx following administration of the agonist. The % inhibition in comparison with the maximum achievable inhibition is indicated.
(§2) The agonistic or antagonistic action of substances can be determined on the bradykinin 1 receptor (B1R) of the human and rat species with the following assay. According to this assay, the Ca^2+ inflow through the channel is quantified with the aid of a Ca^2+-sensitive dye (Fluo-4 type, Molecular Probes Europe BV, Leiden, The Netherlands) in a fluorescent imaging plate reader (FLIPR, Molecular Devices, Sunnyvale, USA).
(§3) Chinese hamster ovary cells (CHO K1 cells) which are stably transfected with the human B1R gene (hB1R cells) or the B1R gene of the rat (rB1R cells) are used. For functional investigations, these cells are plated-out onto black 96-well plates with a clear base (BD Biosciences, Heidelberg, Germany or Greiner, Frickenhausen, Germany) in a density of 20,000-35,000 cells/well. Overnight, the cells are incubated at 37° C. and 5% CO2 in culture medium (hB1R cells: Nutrient Mixture Ham's F12, Gibco Invitrogen GmbH, Karlsruhe, Germany or DMEM, Sigma-Aldrich, Taufkirchen, Germany; rB1R cells: D-MEM/F12, Gibco Invitrogen, Karlsruhe, Germany) with 10 vol. % FBS (foetal bovine serum, Gibco Invitrogen GmbH, Karlsruhe, Germany or PAN Biotech GmbH, Aidenbach, Germany). On the following day the cells are loaded with 2.13 μM Fluo-4 (Molecular Probes Europe BV, Leiden, The Netherlands) in HBSS buffer (Hank's buffered saline solution, Gibco Invitrogen GmbH, Karlsruhe, Germany) with 2.5 mM probenecid (Sigma-Aldrich, Taufkirchen, Germany) and 10 mM HEPES (Sigma-Aldrich, Taufkirchen, Germany) for 60 min at 37° C. The plates are the washed twice with HBSS buffer, and HBSS buffer which additionally contains 0.1% BSA (bovine serum albumin; Sigma-Aldrich, Taufkirchen, Germany), 5.6 mM glucose and 0.05% gelatine (Merck KGaA, Darmstadt, Germany) is added. After a further incubation of 20 minutes at room temperature, the plates are inserted into the FLIPR for Ca^2+ measurement. Alternatively they are washed with buffer A (15 mM HEPES, 80 mM NaCl, 5 mM KCl, 1.2 mM CaCl2, 0.7 mM MgSO4, 2 g/l glucose, 2.5 mM probenecid) and loaded with buffer A with added 2.5 μM Fluo-4 and 0.025% Pluronic F127 (Sigma-Aldrich, Taufkirchen, Germany). The cells are then washed twice with buffer A and incubated for 30 minutes with buffer A, which additionally contains 0.05% BSA and 0.05% gelatine, at room temperature and then used for Ca^2+ measurement in the FLIPR.
(§4) The Ca^2+-dependent fluorescence is measured here before and after addition of substances (λex=488 nm, λem=540 nm). The quantification is performed by measuring the highest fluorescence intensity (FC, fluorescence counts) over time.
(§5) The FLIPR protocol comprises two additions of substance. Test substances (10 μM) are first pipetted onto the cells and the Ca^2+ inflow is compared with the control (hB1R: Lys-Des-Arg^9 bradykinin>=50 nM; rB1R: Des-Arg^9 bradykinin 10 μM). The value in % activation based on the Ca^2+ signal after addition of Lys-Des-Arg^9 bradykinin (>=50 nM) or Des-Arg^9 bradykinin (10 μM) is obtained therefrom. After incubation for 10-20 minutes, Lys-Des-Arg^9 bradykinin (hB1R) or Des-Arg^9 bradykinin (rB1R) is applied in the EC80 concentration and the inflow of Ca^2+ is likewise determined. Antagonists lead to a suppression of the Ca^2+ inflow. The % inhibition in comparison with the maximum achievable inhibition is calculated. […]

The target in another assay is T2, rat B1R (Rattus norvegicus, UniProt P97583).
T2 construct: expressed in transfected cells; host or cells: CHO K1 cells
T2 sequence (P97583 1-337): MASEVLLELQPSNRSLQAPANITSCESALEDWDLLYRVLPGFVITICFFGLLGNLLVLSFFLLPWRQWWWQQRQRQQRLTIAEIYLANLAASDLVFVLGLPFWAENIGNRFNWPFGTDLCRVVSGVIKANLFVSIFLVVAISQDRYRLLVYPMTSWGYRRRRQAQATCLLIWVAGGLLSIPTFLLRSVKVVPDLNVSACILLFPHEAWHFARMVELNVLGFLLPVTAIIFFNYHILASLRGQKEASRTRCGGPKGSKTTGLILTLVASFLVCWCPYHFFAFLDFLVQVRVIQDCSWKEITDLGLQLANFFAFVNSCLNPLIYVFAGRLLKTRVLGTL
Kind of assay: Functional investigation on the bradykinin receptor 1 (B1R), FLIPR Ca2+ assay, rB1R cells. In kind it is cell-based. The settings on record: % inhibition rat B1R at 10 μM; CHO K1 cells transfected with rat B1R; agonist Des-Arg9 bradykinin at EC80; read-out: % Inh. (rat B1R) 10 μM. How it is done: as §1, §2, §3, §4, §5

In the case of `O=C(CC1CCCCN1S(=O)(=O)c1cccc(C(F)(F)F)c1)N1CCC2(CC1)CCC(c1cccc(F)c1)(N1CCCC1)CC2` (centres unmarked) [CC-01, 1-[3-(3-Fluorophenyl)-3-pyrrolidin-1-yl-9-azaspiro[5.5]undecan-9-yl]-2-[1-[[3-(trifluoromethyl)phenyl]sulfonyl]-piperidin-2-yl]-ethanone], the results for the inhibition at 10 µM at human B1R and at rat B1R were 73% and 75%, respectively.

In the case of `COc1cc(C)c(S(=O)(=O)N2CCCCC2CCCC(=O)N2CCC3(CC2)CCC(c2cccc(F)c2)(N2CCCC2)CC3)c(C)c1` (centres unmarked) [CC-02, 1-[3-(3-Fluorophenyl)-3-pyrrolidin-1-yl-9-azaspiro[5.5]undecan-9-yl]-4-[1-[(4-methoxy-2,6-dimethyl-phenyl)sulfonyl]-pipereridin-2-yl]-butan-1-one], the inhibition at 10 µM was determined as 100% on human B1R and 98% at rat B1R.

Consider `COc1cc(C)c(S(=O)(=O)N2CCCCC2COCC(=O)N2CCC3(CC2)CCC(c2cccc(F)c2)(N2CCCC2)CC3)c(C)c1` (centres unmarked) [CC-03, 1-[3-(3-Fluorophenyl)-3-pyrrolidin-1-yl-9-azaspiro[5.5]undecan-9-yl]-2-[[1-[(4-methoxy-2,6-dimethyl-phenyl)sulfonyl]-piperidin-2-yl]-methoxy]-ethanone], for which the inhibition at 10 µM came out at 100% on human B1R and 99% on rat B1R.

For the compound `COc1cc(C)c(S(=O)(=O)N(CCOCC(=O)N2CCC3(CC2)CCC(c2cccc(F)c2)(N2CCCC2)CC3)C2CC2)c(C)c1` [CC-04, N-Cyclopropyl-N-[2-[2-[3-(3-fluorophenyl)-3-pyrrolidin-1-yl-9-azaspiro[5.5]undecan-9-yl]-2-oxo-ethoxy]-ethyl]-4-methoxy-2,6-dimethyl-benzenesulfonic acid amide], the figures for the inhibition at 10 µM at human B1R and at rat B1R were 100% and 98%, respectively.

In the case of `Cc1cccc(Cl)c1S(=O)(=O)N1CCCCC1COCC(=O)N1CCC2(CC1)CCC(c1cccc(F)c1)(N1CCCC1)CC2` (centres unmarked) [CC-05, 2-[[1-[(2-Chloro-6-methyl-phenyl)sulfonyl]-piperidin-2-yl]-methoxy]-1-[3-(3-fluorophenyl)-3-pyrrolidin-1-yl-9-azaspiro[5.5]undecan-9-yl]-ethanone], the inhibition at 10 µM at human B1R worked out at 100%; on rat B1R, 98%.

On to `Cc1cccc(Cl)c1S(=O)(=O)N(CCOCC(=O)N1CCC2(CC1)CCC(c1cccc(F)c1)(N1CCCC1)CC2)C1CC1` [CC-06, 2-Chloro-N-cyclopropyl-N-[2-[2-[3-(3-fluorophenyl)-3-pyrrolidin-1-yl-9-azaspiro[5.5]undecan-9-yl]-2-oxo-ethoxy]-ethyl]-6-methyl-benzenesulfonic acid amide], for which the results for the inhibition at 10 µM at human B1R and at rat B1R were 100% and 97%, respectively.

As to `Cc1cc(S(=O)(=O)N2CCCCC2CCC(=O)N2CCC3(CC2)CCC(c2cccc(F)c2)(N2CCCC2)CC3)c(C)cc1Cl` (centres unmarked) [CC-07, 3-[1-[(4-Chloro-2,5-dimethyl-phenyl)sulfonyl]-piperidin-2-yl]-1-[3-(3-fluorophenyl)-3-pyrrolidin-1-yl-9-azaspiro[5.5]undecan-9-yl]-propan-1-one], the results for the inhibition at 10 µM on human B1R and on rat B1R were 99% and 86%, respectively.

For `O=C(CC(NS(=O)(=O)c1ccc2ccccc2c1)c1ccccc1)N1CCC2(CC1)CCC(c1cccc(F)c1)(N1CCCC1)CC2` (centres unmarked) [CC-08, N-[3-[3-(3-Fluorophenyl)-3-pyrrolidin-1-yl-9-azaspiro[5.5]undecan-9-yl]-3-oxo-1-phenyl-propyl]-naphthalene-2-sulfonic acid amide], the inhibition at 10 µM was 81% on human B1R and 96% at rat B1R.

Regarding `Cc1cccc(Cl)c1S(=O)(=O)N(CCOCC(=O)N1CCC2(CC1)CCC(c1cccs1)(N(C)C)CC2)C1CC1` [CC-09, 2-Chloro-N-cyclopropyl-N-[2-[2-(3-dimethylamino-3-thiophen-2-yl-9-azaspiro[5.5]undecan-9-yl)-2-oxo-ethoxy]-ethyl]-6-methyl-benzenesulfonic acid amide], the inhibition at 10 µM was found to be 100% on human B1R and 97% on rat B1R.

For `CN(C)C1(c2cccs2)CCC2(CCN(C(=O)CC3CCCCN3S(=O)(=O)c3cccc(C(F)(F)F)c3)CC2)CC1` (centres unmarked) [CC-10, 1-(3-Dimethylamino-3-thiophen-2-yl-9-azaspiro[5.5]undecan-9-yl)-2-[1-[[3-(trifluoromethyl)phenyl]sulfonyl]-piperidin-2-yl]-ethanone], the inhibition at 10 µM at human B1R turned out to be 84%; at rat B1R it was 79%.

In the case of `COc1cc(C)c(S(=O)(=O)N2CCCCC2COCC(=O)N2CCC3(CC2)CCC(c2cccs2)(N(C)C)CC3)c(C)c1` (centres unmarked) [CC-11, 1-(3-Dimethylamino-3-thiophen-2-yl-9-azaspiro[5.5]undecan-9-yl)-2-[[1-[(4-rnethoxy-2,6-dimethyl-phenyl)sulfonyl]-piperidin-2-yl]-methoxy]-ethanone], the results for the inhibition at 10 µM at human B1R and on rat B1R were 100% and 98%, respectively.

`COc1cc(C)c(S(=O)(=O)N(CCOCC(=O)N2CCC3(CC2)CCC(c2cccs2)(N(C)C)CC3)C2CC2)c(C)c1` [CC-12, N-Cyclopropyl-N-[2-[2-(3-dimethylamino-3-thiophen-2-yl-9-azaspiro[5.5]undecan-9-yl)-2-oxo-ethoxy]-ethyl]-4-methoxy-2,6-dimethyl-benzenesulfonic acid amide]: the figures for the inhibition at 10 µM on human B1R and on rat B1R were 100% and 97%, respectively.

With `Cc1cccc(Cl)c1S(=O)(=O)N1CCCCC1COCC(=O)N1CCC2(CC1)CCC(c1cccs1)(N(C)C)CC2` (centres unmarked) [CC-13, 2-[[1-[(2-Chloro-6-methyl-phenyl)sulfonyl]-piperidin-2-yl]-methoxy]-1-(3-dimethylamino-3-thiophen-2-yl-9-azaspiro[5.5]undecan-9-yl)-ethanone], the inhibition at 10 µM at human B1R stood at 100%; at rat B1R, 98%.

The values are drawn from patent US8278319B2, “Substituted spiroamine compounds” (Gruenenthal GmbH, priority 2008, dated 2012).
